Measured values: paper PMC11695783 (Frontiers in Pharmacology, 2024)
Values joined by “and” are separate entries in the source; they are usually repeats but may differ in a detail not shown here. Equal values may be shown once. Read-outs that look alike come from different tables or passages of the source.

Legend:
mice [1] = tested on: mice; design: method as in EMA, 1999; details: administered intravenously, ref EMA, 1999; cited from earlier work
[2] = design: method as in Shang et al., 2018; Xianhui, 2010; details: piglets, IM; ref Shang et al., 2018; Xianhui, 2010; cited from earlier work
IFN-γ = IFN-γ in BALF of M. pneumoniae-infected mice (ELISA); assay type: in vivo, BALB/c mice; details: tiamulin 40 mg/kg IM; for IFN-γ in BALF (AV): group AV; for IFN-γ in BALF: individual mice, listed as Tiamulin-IM
Experimental: (§1) Adult BALB/c mice (20–22 g) were divided into a control group, a positive group, and compound 16C groups at low (20 mg/kg), medium (40 mg/kg), and high-dose (80 mg/kg) levels and oral and intramuscular tiamulin treatment groups (40 mg/kg). We formulated the above dose range based on the dose at which tiamulin was approved for injection (10–20 mg/kg) and the dose previously reported (45 mg/kg) ([EMA, 1999]; [Xiao et al., 2016]). In summary, we selected similar doses for compound 16C in vivo study. 40 mg/kg was used as an intermediate value, one-half of it as a low dose, and two times of it as a high dose. To prepare the challenge solution, logarithmic phase culture suspensions were centrifuged at 1700 g for 10 min, and the pellets were suspended in sterile PBS to obtain 1 × 10^9 CFU/mL. Before the challenge, mice were anesthetized with tribromoethanol (250 mg/kg, IP). Mice in the control groups were intratracheally inoculated with sterile PBS, whereas mice in the other groups were intratracheally challenged with 50 μL (1 × 10^9 CFU/mL) M. pneumoniae suspension once a day for 3 days. Compound 16C and tiamulin (tiamulin-IM group) dissolved using the method mentioned in pharmacokinetic studies, and the tiamulin fumarate soluble powder was dissolved in ddH2O for oral administration. After the final challenge, antibiotics were administered at low, medium, and high-dose levels (see above) at 10 a.m. and 10 p.m. daily for 4 consecutive days. Normal saline containing 5% DMSO and 5% Tween-80 was administered as control and positive groups by thigh intramuscular injection. To compare the efficacy of compound 16C and tiamulin under the same route of administration, we used the original tiamulin for intramuscular administration in the same formulation. On the other hand, tiamulin fumarate soluble powder, approved for oral administration to treat animal mycoplasma diseases in China, was administered to mice by gavage. Based on a clinical study of lefamulin in community-acquired bacterial pneumonia (CABP), subjects were administered twice a day and the 96 ± 24 h of starting treatment was an essential point for early clinical response (ECR) ([Paukner et al., 2022]). We therefore stopped treatment at 96 h and sampled at 192 h to explore whether the disease worsened after cessation of treatment. Bronchoalveolar lavage fluid (BALF) and lungs were collected at 0, 96, 192 h (Samples of 0 h were collected before starting treatment, and mice were fed ad libitum without drug treatment during 96–192 h) after the first dose, BALF for cytokine and cytological analysis and lung for histopathological evaluation.
(§2) Bronchoalveolar lavage was performed according to a standardized method ([Van Hoecke et al., 2017]). BALF was obtained following infusion of 0.5 mL PBS via tracheal cannulation into the lung twice (total 1 mL), and 200 µL was used for mycoplasma counts. The remaining BALF was centrifuged at 300 g for 10 min to separate the debris. The supernatants were stored at −80°C, and the debris was resuspended in the same volume of PBS containing red blood cell lysis buffer. A hemocytometer was used to count total cell numbers in BALF, and cell smears (Diff-Quik staining) were prepared to calculate the percentages of neutrophils, macrophages, and lymphocytes. IFN-γ, TNF-α, and CXCL1 levels in BALF samples were assessed using commercial ELISA kits using guidelines recommended by the manufacturer (Elabscience, Wuhan, China). Parallel data for each experimental group at each time point were obtained from six different mice.

CXCL1 = CXCL1 in BALF of M. pneumoniae-infected mice (ELISA); assay type: in vivo, BALB/c mice; details: for CXCL1 in BALF (AV): group AV; for CXCL1 in BALF: individual mice
Experimental: as §1, §2

mice [3] = details: acute oral toxicity, ref EMA, 1999, cited from earlier work
Mycoplasma pneumoniae = assay: In vivo pharmacodynamic study: Mycoplasma pneumoniae loads in BALF of infected mice; design: species or system BALB/c mice; details: for microbial reduction in BALF: 96 h; for MPcounts in BALF (AV) / MPcounts in BALF: tiamulin 40 mg/kg IM; for MPcounts in BALF (AV): group AV; for MPcounts in BALF: individual mice, listed as TiamulinIM
Experimental: as §1, §2

[4] = tiamulin 40 mg/kg IM, 96 h, listed as Tiamulin-IM

In the case of `C=C[C@]1(C)C[C@@H](OC(=O)CSCCN(CC)CC)[C@]2(C)[C@H](C)CC[C@]3(CCC(=O)[C@H]32)[C@@H](C)[C@@H]1O` [tiamulin, Tiamulin, reference compound], the LD50 (mice [1]) is listed as 50 mg/kg, the bioavailability [2] is listed as 73.51% and 75.73% and the “IFN-γ in BALF (AV)” value (IFN-γ; 96h) is listed as 32.2202 pg/mL. The “IFN-γ in BALF” value (IFN-γ; 96 h) was 44.0596 pg/mL and 23.033 pg/mL and 20.7601 pg/mL and 28.3723 pg/mL and 44.8757 pg/mL, the “IFN-γ in BALF (AV)” value (IFN-γ; 192 h) was 31.227 pg/mL and the “IFN-γ in BALF” value (IFN-γ; 192 h) was 40.7875 pg/mL and 41.6067 pg/mL and 42.4252 pg/mL and 23.316 pg/mL and 21.0452 pg/mL and 18.1814 pg/mL. For the same compound, the “CXCL1 in BALF (AV)” value (CXCL1; [4]) was 35.2692 pg/mL, the “CXCL1 in BALF” value (CXCL1; [4]) was 32.338 pg/mL and 47.9047 pg/mL and 25.7589 pg/mL and 33.1238 pg/mL and 37.221 pg/mL and the “CXCL1 in BALF (AV)” value (CXCL1; tiamulin 40 mg/kg IM, 192 h) was 47.4109 pg/mL. The “CXCL1 in BALF” value (CXCL1; tiamulin 40 mg/kg IM, 192 h, listed as Tiamulin-IM) was 47.2576 pg/mL and 36.3942 pg/mL and 46.6093 pg/mL and 59.3827 pg/mL, the “CXCL1 in BALF (AV)” value (CXCL1; tiamulin 40 mg/kg PO (fumarate soluble powder), 96 h) was 40.932 pg/mL and the “CXCL1 in BALF (AV)” value (CXCL1; tiamulin 40 mg/kg PO (fumarate soluble powder), 192 h) was 46.955 pg/mL. The LD50 (mice [3]; female mice) was 650 mg/kg, the LD50 (mice [3]; male mice) was 770 mg/kg and the “microbial reduction in BALF” value (Mycoplasma pneumoniae; tiamulin 40 mg/kg IM twice daily 4 d) was 2.26 log10 CFU/mL. The “MPcounts in BALF (AV)” value (Mycoplasma pneumoniae; 96h) was 3.805 Log10CFU/mL, the “MPcounts in BALF” value (Mycoplasma pneumoniae; 96h) was 3.506 Log10CFU/mL and 3.899 Log10CFU/mL and 3.382 Log10CFU/mL and 5.052 Log10CFU/mL and 3.608 Log10CFU/mL and 3.384 Log10CFU/mL and the “MPcounts in BALF (AV)” value (Mycoplasma pneumoniae; 192 h) was 3.657 Log10CFU/mL. For the same compound, the “MPcounts in BALF” value (Mycoplasma pneumoniae; 192h) was 3.57 Log10CFU/mL (2×) and 3.868 Log10CFU/mL and 3.692 Log10CFU/mL and 3.619 Log10CFU/mL and 3.625 Log10CFU/mL and the “microbial reduction in BALF” value (Mycoplasma pneumoniae; tiamulin 40 mg/kg PO (tiamulin fumarate soluble powder) twice daily 4 d) was 1.17 log10 CFU/mL.
